This note sets out measurements from patent publication US20260374766A1, “METHODS FOR TREATING CANCER” (Antares Therapeutics, Inc., priority 2022, published 2026).

Experiment [1] has as its target T1, p53 Y220C mutant protein (amino acid residues 94-293) (Homo sapiens, UniProt P04637, Y220C).
T1 construct: p53 Y220C mutant protein (amino acid residues 94-293)
The experiment can be described thus: Surface Plasmon Resonance (SPR) assay, Kd_kinetic. It counts as binding. The settings on record: SPR, kinetic KD, p53 Y220C; read-out: SPR P53 Y220C KD kinetic. In short, it runs like this:
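Biacore 8K SPR; 16 or 20 °C; Tris 50 mM pH 7.5, NaCl 100 mM, DTT 1 mM, Brij35 0.01%, Tween-20 0.05%, DMSO 1%. Kd_kinetic by 1:1 fit.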

Experiment [2] concerns the target T1, p53 Y220C mutant protein (amino acid residues 94-293). The experiment can be described thus: Thermal Shift Assay (TSA), dTM. The format is binding. The settings on record: thermal shift, 100 uM compound; read-out: TSA P53 Y220C dTM (100 uM). In a few lines:
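Recombinant p53 Y220C core (residues 94-293) at 5 μM was incubated with 10 μM or 100 μM compound for 3 hours at 20 °C in 20 mM HEPES pH7.4, 100 mM NaCl, 0.01% Pluronic F-127, 1% DMSO with 400-fold diluted Sypro Orange. Melting was followed from 30 °C to 50 °C at 0.03 °C/second, and TM came from a Boltzmann two-state fit.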

The target of a further experiment is p53 Y220C (Homo sapiens, UniProt P04637, Y220C). Description: Luciferase Reporter Assay (Luc), p53 response element, NClH1299 cells with inducible p53 Y220C. The settings on record: luciferase reporter, NClH1299 inducible p53 Y220C, 6 hour; for Emax: 10 uM tool compound as positive control; for AC50: read-out: Luc P53 Y220C AC50. The format is cell-based. In a few lines: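 Luminescence readout (One-Glo, 5 min shaking at RT, read at once) after 6 h compound exposure; cells pre-induced 24 h with 0.5 ug/mL doxycycline, 5,000/well.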
(In a reporter assay the amount or activity of a reporter protein is the signal.)

A further experiment relates to NUGC3 p53 Y220C. The experiment can be described thus: Cell Proliferation Assay (CellTiter-Glo, CTG), NUGC3 p53 Y220C. It counts as cell-based. Particulars: Homo sapiens, NUGC-3, 120 h, CellTiter-Glo, NUGC3 p53 Y220C, 5 days. In a few lines:
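Tet-One inducible p53 Y220C or R273H constructs were stably introduced into NCI-H1299 by lentiviral transduction; NUGC3 was used as is. Cells (250-500 per well) were exposed to compound for 5 days, then CellTiter-Glo was added for 10 min at room temperature and IC50 was calculated from luminescence.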

The subject of the next experiment is H1299 p53 Y220C. Description: Cell Proliferation Assay (CellTiter-Glo, CTG), H1299 p53 Y220C (NClH1299-inducible p53 Y220C). The settings on record: Homo sapiens, NCI-H1299, 120 h, CellTiter-Glo, H1299 p53 Y220C, 5 days. It counts as cell-based. In a few lines: (§1)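 NClH1299 lines stably transduced with Tet-inducible p53 Y220C or R273H, plus NUGC3, were treated with compound for 5 days at 250-500 cells/well. IC50 derived from CellTiter-Glo luminescent signal after 10 min room-temperature incubation.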
For orientation: Cellular ATP, detected with luciferase, serves as a proxy for viable cell number.

A further experiment relates to H1299 p53 R273H. The experiment can be described thus: Cell Proliferation Assay (CellTiter-Glo, CTG), H1299 p53 R273H (NClH1299-inducible p53 R273H). Particulars: Homo sapiens, NCI-H1299, 120 h, CellTiter-Glo, H1299 p53 R273H, 5 days. It counts as cell-based. In a few lines:
as §1

Some results are limits rather than exact numbers.

For the molecule `COc1cc(C(=O)NC2CC2)ccc1NCC#Cc1nc2c(N[C@@H]3CCN(C)C[C@@H]3F)cccn2c1CC(F)(F)F` [Example 49, N-cyclopropyl-4-{[3-(8-{[(3S,4R)-3-fluoro-1-methylpiperidin-4-yl]amino}-3-(2,2,2-trifluoroethyl)imidazo[1,2-a]pyridin-2-yl)prop-2-yn-1-yl]amino}-3-methoxybenzamide], the Kd (as a rule, the concentration at which binding is half-saturated) in experiment [1] lay in the range of 0.01 to 0.1 µM. In addition, in experiment [2], the ΔTm at 100 µM is at least 10 °C. At p53 Y220C, the Emax – broadly, the greatest response seen or fitted, relative to the assay's reference – fell in the range of 70 to 80%. Also, the AC50 (in general, the concentration giving half of the maximal activity seen) on p53 Y220C was in the range of 0.75 to 1.5 µM. The IC50 (usually the concentration that inhibits the measured activity by half) in the experiment on NUGC3 p53 Y220C fell in the range of 0.75 to 1.5 µM; with H1299 p53 Y220C, 0.75 to 1.5 µM; in the experiment with H1299 p53 R273H, 8 to 10 µM.

For `COc1cc(C(=O)N2CCCC2)ccc1NCC#Cc1nc2c(N[C@@H]3CCN(C)C[C@@H]3F)cccn2c1CC(F)(F)F` [Example 50, (3S,4R)-3-fluoro-N-[2-(3-{[2-methoxy-4-(pyrrolidine-1-carbonyl)phenyl]amino}prop-1-yn-1-yl)-3-(2,2,2-trifluoroethyl)imidazo[1,2-a]pyridin-8-yl]-1-methylpiperidin-4-amine], in experiment [1], the Kd was 0.01 to 0.1 µM. Besides, the ΔTm at 100 µM in experiment [2] is at least 10 °C. At p53 Y220C, this molecule showed an Emax below 70%. Moreover, the AC50 at p53 Y220C is 0.75 to 1.5 µM. The results for the IC50 in the experiment with NUGC3 p53 Y220C, in the experiment with H1299 p53 Y220C and in the experiment with H1299 p53 R273H were 0.75 to 1.5 µM, 0.75 to 1.5 µM and at least 10 µM, respectively.

Turning to `CNC(=O)c1ccc(NCC#Cc2nc3c(N[C@@H]4CCN(C)C[C@@H]4F)cccn3c2CC(F)(F)F)cn1` [Example 52, 5-{[3-(8-{[(3S,4R)-3-fluoro-1-methylpiperidin-4-yl]amino}-3-(2,2,2-trifluoroethyl)imidazo[1,2-a]pyridin-2-yl)prop-2-yn-1-yl]amino}-N-methylpyridine-2-carboxamide], in experiment [1], the Kd was 0.01 to 0.1 µM. For the same molecule, the ΔTm at 100 µM in experiment [2] was in the range of 5 to 10 °C. Further, the Emax at p53 Y220C lay within 70 to 80%. For the same molecule, at p53 Y220C, the AC50 is above 3 µM. Besides, the concentration for half-maximal inhibition (IC50) in the experiment on NUGC3 p53 Y220C was above 3 µM; in the experiment on H1299 p53 Y220C, 1.5 to 3 µM; with H1299 p53 R273H, at least 10 µM.

For `CNC(=O)c1ccc(NCC#Cc2nc3c(N[C@@H]4CCN(C)C[C@@H]4F)cccn3c2CC(F)(F)F)c(OC(F)(F)F)c1` [Example 53, 4-{[3-(8-{[(3S,4R)-3-fluoro-1-methylpiperidin-4-yl]amino}-3-(2,2,2-trifluoroethyl)imidazo[1,2-a]pyridin-2-yl)prop-2-yn-1-yl]amino}-N-methyl-3-(trifluoromethoxy) benzamide], in experiment [1], the Kd lay within 0.01 to 0.1 µM. Moreover, the ΔTm at 100 µM in experiment [2] lay in the range of 5 to 10 °C. The molecule further yielded an Emax on p53 Y220C of 70 to 80%. Also, the AC50 on p53 Y220C is above 3 µM. The IC50 is 1.5 to 3 µM with NUGC3 p53 Y220C, 1.5 to 3 µM with H1299 p53 Y220C and at least 10 µM in the experiment with H1299 p53 R273H.

Consider `CNC(=O)c1ccc(NCC#Cc2nc3c(N[C@@H]4CCN(C)C[C@@H]4F)cccn3c2CC(F)(F)F)c(C(F)(F)F)c1` [Example 54, 4-{[3-(8-{[(3S,4R)-3-fluoro-1-methylpiperidin-4-yl]amino}-3-(2,2,2-trifluoroethyl)imidazo[1,2-a]pyridin-2-yl)prop-2-yn-1-yl]amino}-N-methyl-3-(trifluoromethyl)benzamide], for which the Kd in experiment [1] was in the range of 0.01 to 0.1 µM. The ΔTm at 100 µM in experiment [2] was at least 10 °C. At p53 Y220C, the Emax lay in the range of 70 to 80%. For the same molecule, the AC50 on p53 Y220C is above 3 µM. Moreover, the IC50 is above 3 µM in the experiment on NUGC3 p53 Y220C, above 3 µM in the experiment with H1299 p53 Y220C and at least 10 µM in the experiment with H1299 p53 R273H.

On to `CNC(=O)c1ccc(NCC#Cc2nc3c(N[C@@H]4CCN(C)C[C@@H]4F)cccn3c2CC(F)(F)F)c(Cl)c1` [Example 55, 3-chloro-4-{[3-(8-{[(3S,4R)-3-fluoro-1-methylpiperidin-4-yl]amino}-3-(2,2,2-trifluoroethyl)imidazo[1,2-a]pyridin-2-yl)prop-2-yn-1-yl]amino}-N-methylbenzamide], for which the Kd in experiment [1] lay in the range of 0.01 to 0.1 µM. Besides, in experiment [2], the ΔTm at 100 µM is at least 10 °C. The Emax on p53 Y220C is above 90%. Moreover, the AC50 on p53 Y220C was in the range of 0.75 to 1.5 µM. The IC50 was 0.75 to 1.5 µM in the experiment with NUGC3 p53 Y220C, 0.75 to 1.5 µM in the experiment with H1299 p53 Y220C and at least 10 µM in the experiment on H1299 p53 R273H.

As for `CNC(=O)c1ccc(NCC#Cc2nc3c(N[C@@H]4CCN(C)C[C@@H]4F)cccn3c2CC(F)(F)F)c(C#N)c1` [Example 56, 3-cyano-4-{[3-(8-{[(3S,4R)-3-fluoro-1-methylpiperidin-4-yl]amino}-3-(2,2,2-trifluoroethyl)imidazo[1,2-a]pyridin-2-yl)prop-2-yn-1-yl]amino}-N-methylbenzamide], the Kd in experiment [1] is 0.01 to 0.1 µM. Further, the ΔTm at 100 µM in experiment [2] was at least 10 °C. At p53 Y220C, this molecule returned an Emax of 80 to 90%. Besides, the AC50 at p53 Y220C is above 3 µM. For the same molecule, the IC50 with NUGC3 p53 Y220C is above 3 µM; with H1299 p53 Y220C it was above 3 µM; with H1299 p53 R273H, at least 10 µM.

Consider `CNC(=O)c1ccc(NCC#Cc2nc3c(N[C@@H]4CCN(C)C[C@@H]4F)cccn3c2CC(F)(F)F)c(C2CC2)c1` [Example 57, 3-cyclopropyl-4-{[3-(8-{[(3S,4R)-3-fluoro-1-methylpiperidin-4-yl]amino}-3-(2,2,2-trifluoroethyl)imidazo[1,2-a]pyridin-2-yl)prop-2-yn-1-yl]amino}-N-methylbenzamide], for which the Kd in experiment [1] fell in the range of 0.01 to 0.1 µM. Also, the ΔTm at 100 µM in experiment [2] is at least 10 °C. In addition, at p53 Y220C, the Emax was 70 to 80%. For the same molecule, the AC50 on p53 Y220C is above 3 µM. In addition, the IC50 in the experiment on NUGC3 p53 Y220C is above 3 µM; with H1299 p53 Y220C, above 3 µM; in the experiment on H1299 p53 R273H, at least 10 µM.

For the molecule `CCc1cc(C(=O)NC)ccc1NCC#Cc1nc2c(N[C@@H]3CCN(C)C[C@@H]3F)cccn2c1CC(F)(F)F` [Example 58, 3-ethyl-4-{[3-(8-{[(3S,4R)-3-fluoro-1-methylpiperidin-4-yl]amino}-3-(2,2,2-trifluoroethyl)imidazo[1,2-a]pyridin-2-yl)prop-2-yn-1-yl]amino}-N-methylbenzamide], the Kd in experiment [1] was below 0.01 µM. The ΔTm at 100 µM in experiment [2] was 5 to 10 °C. Besides, on p53 Y220C, the Emax fell in the range of 70 to 80%. The AC50 on p53 Y220C is above 3 µM. Also, the results for the IC50 with NUGC3 p53 Y220C, in the experiment on H1299 p53 Y220C and in the experiment on H1299 p53 R273H were above 3 µM, above 3 µM and at least 10 µM, respectively.

For the molecule `CCOc1cc(C(=O)NC)ccc1NCC#Cc1nc2c(N[C@@H]3CCN(C)C[C@@H]3F)cccn2c1CC(F)(F)F` [Example 59, 3-ethoxy-4-{[3-(8-{[(3S,4R)-3-fluoro-1-methylpiperidin-4-yl]amino}-3-(2,2,2-trifluoroethyl)imidazo[1,2-a]pyridin-2-yl)prop-2-yn-1-yl]amino}-N-methylbenzamide], the Kd in experiment [1] was below 0.01 µM. The ΔTm at 100 µM in experiment [2] was 5 to 10 °C. The Emax on p53 Y220C was 70 to 80%. In addition, the AC50 on p53 Y220C fell in the range of 1.5 to 3 µM. For the same molecule, the IC50 is 0.75 to 1.5 µM with NUGC3 p53 Y220C, 0.75 to 1.5 µM in the experiment with H1299 p53 Y220C and at least 10 µM in the experiment on H1299 p53 R273H.

For the molecule `CNC(=O)c1ccc(NCC#Cc2nc3c(N[C@@H]4CCN(C)C[C@@H]4F)cccn3c2CC(F)(F)F)c(OC(F)F)c1` [Example 60, 3-(difluoromethoxy)-4-{[3-(8-{[(3S,4R)-3-fluoro-1-methylpiperidin-4-yl]amino}-3-(2,2,2-trifluoroethyl)imidazo[1,2-a]pyridin-2-yl)prop-2-yn-1-yl]amino}-N-methylbenzamide], the Kd in experiment [1] is below 0.01 µM. Also, the ΔTm at 100 µM in experiment [2] was at least 10 °C. On p53 Y220C, the Emax lay in the range of 70 to 80%. In addition, the AC50 at p53 Y220C is above 3 µM. Moreover, the IC50 with NUGC3 p53 Y220C is 1.5 to 3 µM; in the experiment with H1299 p53 Y220C, 1.5 to 3 µM; in the experiment on H1299 p53 R273H, at least 10 µM.
